Earlier results on two substances are cited in patent US20090069233A1, “Agonist Peptides of Basic Fibroblast Growth Factor (bFGF) and the Method of Reduction of Wrinkles on Skin, Darkening of Hair and Acceleration of Wound Healing” (priority 2005, published 2009).

The subject of series [1] is depigmented ear lobes of Guinea pigs. Conditions: bFGF by interdermal injection.
For series [2], the system named is depigmented skin patches of Yucatan swine. Conditions: bFGF by interdermal injection.
The next series deals with artificial wound space. As to conditions: poly-vinyl alcohol sponge implant, histological and biochemical analysis.
Series [3] deals with melanocytes obtained from the uninvolved areas of untreated vitiligo subjects. As to conditions: in vitro cell cultures.
The next series relates to wounds of diabetic mice. As to conditions: wound healing experiments.

As to “epidermal growth factor: other growth factor used as specificity control in repigmentation animal models (NSDSECPLSHDGYCLHDGVCMYIEALDKYACNCVVGYIGERCQYRDLKWWELR; UniProt P01133 971-1023, looked up) [reference compound]”, the “repigmentation of depigmented ear lobes” value in series [1] is “did not have any effect”. In series [2], the “repigmentation of depigmented skin patches” value was “did not have any effect”.
Turning to “bFGF: Basic fibroblast growth factor, a potent mitogen for melanocytes, keratinocytes and fibroblasts”, the “neo vascularisation, number of fibroblasts and deposition of collagen in the wound space” value in the series with artificial wound space is “increase neo vasculatisation the number of fibroblasts and the deposition of collagen in the wound space”. Further, in series [3], the “correction of abnormalities of melanocytes” value is given as “corrects all the abnormalities of melanocytes”. Moreover, the side effects result in the series with wounds of diabetic mice was “no side effects”. Also, the “repigmentation of depigmented ear lobes” value in series [1] was “found effect”. Further, the “repigmentation of depigmented skin patches” value in series [2] is “found effect”.
